Values joined by “and” are separate entries in the source; they are usually repeats but may differ in a detail not shown here. Equal values may be shown once. Read-outs that look alike come from different tables or passages of the source.
Assays:
[1] = molecular target: human D-amino acid oxidase (Homo sapiens, UniProt P14920); assay: Inhibition of human D-amino acid oxidase; format: biochemical; settings: read-out: IC50 for inhibiting human D-amino acid oxidase
[2] = molecular target: 2019-nCoV 3CLPro (Severe acute respiratory syndrome coronavirus 2, UniProt P0DTD1); assay: 2019-nCoV 3CLPro fluorogenic protease activity assay at 3 μM (35 nM protease, pH 7.0); format: biochemical; settings: for remaining activity at 3 µM / Residual Protease Activity (%) 3 μM: 3 μM sample; for remaining activity at 3 µM: read-out: Residual Protease Activity (%) 3 μM
[3] = molecular target: T1, SARS-CoV-2 3CLPro (Severe acute respiratory syndrome coronavirus 2, UniProt P0DTD1); assay: Native-PAGE mobility shift binding with 3CLPro; settings: 62.5-1000 μM sample mixed with 40 μM 3CLPro, 4° C., 3 hours
[4] = tested on: SARS-CoV-2; settings: Choy et al., 2020; qRT-PCR, supernatant; MOI = 0.02; cited from earlier work
[5] = molecular target: T1, SARS-CoV-2 3CLPro; assay: biochemical
[6] = 2020, cited from earlier work
[7] = tested on: SARS-CoV-2; assay: SARS-CoV-2 virucidal assay in Vero E6 cells (qPCR of RdRP gene); format: cell-based; settings: MOI 0.01, 24 h
[8] = molecular target: T2, SARS-CoV-2 viral 3CL protease (Severe acute respiratory syndrome coronavirus 2, UniProt P0DTD1); assay: 3CL protease activity assay, concentration series of SNB01 (IC50); format: biochemical
[9] = molecular target: T2, SARS-CoV-2 viral 3CL protease; assay: biochemical; settings: read-out: Residual Protease Activity (%) 1 μM
[10] = IC50, Table 34, final DMSO concentration 0.05%
[11] = Table 34, final DMSO concentration 0.05%, read-out: IC50 (converted)
[12] = Table 34, final DMSO concentration 0.40%, read-out: IC50 (converted)
[13] = 50% inhibition concentration (IC50) against SARS-CoV-2 3CLPro, samples of Table 34, 50 nM protease, 6 μM substrate

human D-amino acid oxidase, sequence (P14920 whole entry): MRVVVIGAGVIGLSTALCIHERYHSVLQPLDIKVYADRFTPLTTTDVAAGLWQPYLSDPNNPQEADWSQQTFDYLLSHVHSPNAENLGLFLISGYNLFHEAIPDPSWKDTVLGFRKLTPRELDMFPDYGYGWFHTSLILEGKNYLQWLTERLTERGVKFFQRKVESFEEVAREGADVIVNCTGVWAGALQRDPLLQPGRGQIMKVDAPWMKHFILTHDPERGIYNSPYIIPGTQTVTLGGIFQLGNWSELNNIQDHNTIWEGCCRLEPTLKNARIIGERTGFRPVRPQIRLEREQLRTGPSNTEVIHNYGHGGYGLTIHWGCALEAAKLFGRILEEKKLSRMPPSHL

O=C(O)c1cc(O)c(O)c(OC(=O)c2cc(O)c(O)c(OC(=O)c3cc(O)c(O)c(O)c3)c2)c1 [Compound 14]
IC50 [1]: 299 nM

O=C(O)c1cc(O)c(O)c(OC(=O)c2cc(O)c(O)c(OC(=O)c3cc(O)c(O)c(OC(=O)c4cc(O)c(O)c(OC(=O)c5cc(O)c(O)c(O)c5)c4)c3)c2)c1 [Compound 18]
IC50 [1]: 121 nM | remaining activity at 3 µM [2]: 56% | inhibition at 3 µM ([2]; 3 μM, read-out: inhibition activity against 2019-nCoV 3CLpro): 44%

O=C(O)c1cc(O)c(O)c(O)c1 [GA, gallic acid, reference compound]
binding to 3CLPro by native-PAGE mobility shift [3]: no significant binding

Cc1cccc(C)c1OCC(=O)N[C@@H](Cc1ccccc1)[C@@H](O)C[C@H](Cc1ccccc1)NC(=O)[C@H](C(C)C)N1CCCNC1=O [Lopinavir]
EC50 [4]: 26100 nM | Therapeutic Index (CC50/EC50) [4]: 1.906

O=C(Oc1cc(OC(=O)c2cc(O)c(O)c(OC(=O)c3cc(O)c(O)c(OC(=O)c4cc(O)c(O)c(O)c4)c3)c2)cc(OC(=O)c2cc(O)c(O)c(OC(=O)c3cc(O)c(O)c(OC(=O)c4cc(O)c(O)c(O)c4)c3)c2)c1)c1cc(O)c(O)c(OC(=O)c2cc(O)c(O)c(OC(=O)c3cc(O)c(O)c(O)c3)c2)c1 [Phloroglucinol 9G]
IC50 [5, 10]: 1450 nM | IC50 [5, 11]: 1450 nM

O=C(Oc1cc(OC(=O)c2cc(O)c(O)c(OC(=O)c3cc(O)c(O)c(OC(=O)c4cc(O)c(O)c(OC(=O)c5cc(O)c(O)c(OC(=O)c6cc(O)c(O)c(O)c6)c5)c4)c3)c2)cc(OC(=O)c2cc(O)c(O)c(OC(=O)c3cc(O)c(O)c(OC(=O)c4cc(O)c(O)c(OC(=O)c5cc(O)c(O)c(OC(=O)c6cc(O)c(O)c(O)c6)c5)c4)c3)c2)c1)c1cc(O)c(O)c(OC(=O)c2cc(O)c(O)c(OC(=O)c3cc(O)c(O)c(OC(=O)c4cc(O)c(O)c(OC(=O)c5cc(O)c(O)c(O)c5)c4)c3)c2)c1 [Phloroglucinol 15G]
IC50 [5, 12]: 934 nM

CCC(CC)COC(=O)[C@H](C)N[P@](=O)(OC[C@H]1O[C@@](C#N)(c2ccc3c(N)ncnn23)[C@H](O)[C@@H]1O)Oc1ccccc1 [Remdesivir]
CC50 ([6]; Choy et al.): > 100000 nM | CC50 ([6]; Jeon et al.): > 25000 nM | CC50 ([6]; Pruijssers et al.): > 10000 nM | CC50 ([6]; Runfeng et al.): 111000 nM | CC50 ([6]; Wang et al.): > 100000 nM | EC99 against SARS-CoV-2 infection ([7]; Vero E6, cell layer): 15 µM and 15.000 µM | EC99 against SARS-CoV-2 infection ([7]; Vero E6, supernatant): 15 µM and 15.000 µM

O=C(OC[C@H]1O[C@@H](OC(=O)c2cc(O)c(O)c(OC(=O)c3cc(O)c(O)c(O)c3)c2)[C@H](OC(=O)c2cc(O)c(O)c(OC(=O)c3cc(O)c(O)c(O)c3)c2)[C@@H](OC(=O)c2cc(O)c(O)c(OC(=O)c3cc(O)c(O)c(O)c3)c2)[C@@H]1OC(=O)c1cc(O)c(O)c(OC(=O)c2cc(O)c(O)c(O)c2)c1)c1cc(O)c(O)c(OC(=O)c2cc(O)c(O)c(O)c2)c1 [SNB01]
IC50 [8]: ~474 nM

O=C(OC[C@H]1O[C@H](OC(=O)c2cc(O)c(O)c(O)c2)[C@H](OC(=O)c2cc(O)c(O)c(O)c2)[C@@H](OC(=O)c2cc(O)c(O)c(O)c2)[C@@H]1OC(=O)c1cc(O)c(O)c(O)c1)c1cc(O)c(O)c(O)c1 [Sample 1]
remaining activity at 3 µM [2]: 52%

O=C(OC[C@H]1O[C@@H](OC(=O)c2cc(O)c(O)c(O)c2)[C@H](OC(=O)c2cc(O)c(O)c(O)c2)[C@@H](OC(=O)c2cc(O)c(O)c(O)c2)[C@@H]1OC(=O)c1cc(O)c(O)c(O)c1)c1cc(O)c(O)c(O)c1 [Sample 2, (2S,3R,4S,5R,6R)-3,4,5-tris(3,4,5-trihydroxybenzoyloxy)-6-((3,4,5-trihydroxybenzoyloxy)methyl)oxan-2-yl 3,4,5-trihydroxybenzoate]
remaining activity at 1 µM [9]: 57% | remaining activity at 3 µM [2]: 55%

O=C(OC[C@H]1O[C@H](OC(=O)c2cc(O)c(O)c(OC(=O)c3cc(O)c(O)c(O)c3)c2)[C@H](OC(=O)c2cc(O)c(O)c(OC(=O)c3cc(O)c(O)c(O)c3)c2)[C@@H](OC(=O)c2cc(O)c(O)c(OC(=O)c3cc(O)c(O)c(O)c3)c2)[C@@H]1OC(=O)c1cc(O)c(O)c(OC(=O)c2cc(O)c(O)c(O)c2)c1)c1cc(O)c(O)c(OC(=O)c2cc(O)c(O)c(O)c2)c1 [Sample 3]
remaining activity at 1 µM ([9]; 1 μM sample): 39% | Residual Protease Activity (%) 3 μM [2]: −2% | IC50 [5, 13]: < 882 nM | IC50 [5, 10]: 666 nM and 665 nM

O=C(OC[C@H]1O[C@@H](OC(=O)c2cc(O)c(O)c(OC(=O)c3cc(O)c(O)c(O)c3)c2)[C@H](OC(=O)c2cc(O)c(O)c(OC(=O)c3cc(O)c(O)c(O)c3)c2)[C@@H](OC(=O)c2cc(O)c(O)c(OC(=O)c3cc(O)c(O)c(O)c3)c2)[C@@H]1OC(=O)c1cc(O)c(O)c(OC(=O)c2cc(O)c(O)c(O)c2)c1)c1cc(O)c(O)c(OC(=O)c2cc(O)c(O)c(O)c2)c1 [Sample 4, (2S,3R,4S,5R,6R)-3,4,5-tris(3,4-dihydroxy-5-(3,4,5-trihydroxybenzoyloxy)benzoyloxy)-6-((3,4-dihydroxy-5-(3,4,5-trihydroxybenzoyloxy)benzoyloxy)methyl)oxan-2-yl 3,4-dihydroxy-5-(3,4,5-trihydroxybenzoyloxy)benzoate]
binding to 3CLPro by native-PAGE mobility shift [3]: significant binding | remaining activity at 1 µM ([9]; 1 μM sample): 43% | Residual Protease Activity (%) 3 μM [2]: −9% | IC50 [5, 13]: < 882 nM | IC50 [5, 10]: 806 nM

O=C(OC[C@H]1O[C@@H](OC(=O)c2cc(O)c(O)c(OC(=O)c3cc(O)c(O)c(OC(=O)c4cc(O)c(O)c(O)c4)c3)c2)[C@H](OC(=O)c2cc(O)c(O)c(OC(=O)c3cc(O)c(O)c(OC(=O)c4cc(O)c(O)c(O)c4)c3)c2)[C@@H](OC(=O)c2cc(O)c(O)c(OC(=O)c3cc(O)c(O)c(OC(=O)c4cc(O)c(O)c(O)c4)c3)c2)[C@@H]1OC(=O)c1cc(O)c(O)c(OC(=O)c2cc(O)c(O)c(OC(=O)c3cc(O)c(O)c(O)c3)c2)c1)c1cc(O)c(O)c(OC(=O)c2cc(O)c(O)c(OC(=O)c3cc(O)c(O)c(O)c3)c2)c1 [Sample 6, (2S,3R,4S,5R,6R)-6-(((3-((3,4-dihydroxy-5-((3,4,5-trihydroxybenzoyl)oxy)benzoyl)oxy)-4,5-dihydroxybenzoyl)oxy)methyl)tetrahydro-2H-pyran-2,3,4,5-tetrayl tetrakis(3-((3,4-dihydroxy-5-((3,4,5-trihydroxybenzoyl)oxy)benzoyl)oxy)-4,5-dihydroxybenzoate)]
binding to 3CLPro by native-PAGE mobility shift [3]: significant binding | remaining activity at 1 µM ([9]; 1 μM sample): 39% | IC50 [5, 13]: < 609 nM | IC50 [5, 10]: 602 nM | IC50 [5, 11]: 602 nM

O=C(Oc1ccccc1)c1cc(O)c(O)c(OC(=O)c2cc(O)c(O)c(OC(=O)c3cc(O)c(O)c(O)c3)c2)c1 [phenol 3G]
IC50 ([5]; IC50, Table 34, final DMSO concentration 0.40%): 6440 nM | IC50 [5, 12]: 6440 nM

Source: patent publication US11382924B2, “Compounds and pharmaceutical uses thereof” (priority 2020, dated 2022)
